Data as given in patent US5491169A, “Amino acid derivatives and their therapeutical applications” (priority 1989, dated 1996).
Values joined by “and” are separate entries in the source; they are usually repeats but may differ in a detail not shown here. Identical values can stand only once. Values belong to the molecule of their own block, whether it stands above or below them.

Experiments:
[1] = target: T1, purified rabbit kidney neutral endopeptidase (Oryctolagus cuniculus, UniProt P08049); assay: In vitro inhibitory potency against neutral endopeptidase; type: biochemical; settings: purified rabbit kidney enzyme, (3H)-D-Ala2-Leu5-enkephalin, 25° C., pH 7.4, DTT 100 equivalents
T1 construct: from tissue; host or cells: rabbit kidney (purified enzyme)
T1 sequence (P08049 1-750): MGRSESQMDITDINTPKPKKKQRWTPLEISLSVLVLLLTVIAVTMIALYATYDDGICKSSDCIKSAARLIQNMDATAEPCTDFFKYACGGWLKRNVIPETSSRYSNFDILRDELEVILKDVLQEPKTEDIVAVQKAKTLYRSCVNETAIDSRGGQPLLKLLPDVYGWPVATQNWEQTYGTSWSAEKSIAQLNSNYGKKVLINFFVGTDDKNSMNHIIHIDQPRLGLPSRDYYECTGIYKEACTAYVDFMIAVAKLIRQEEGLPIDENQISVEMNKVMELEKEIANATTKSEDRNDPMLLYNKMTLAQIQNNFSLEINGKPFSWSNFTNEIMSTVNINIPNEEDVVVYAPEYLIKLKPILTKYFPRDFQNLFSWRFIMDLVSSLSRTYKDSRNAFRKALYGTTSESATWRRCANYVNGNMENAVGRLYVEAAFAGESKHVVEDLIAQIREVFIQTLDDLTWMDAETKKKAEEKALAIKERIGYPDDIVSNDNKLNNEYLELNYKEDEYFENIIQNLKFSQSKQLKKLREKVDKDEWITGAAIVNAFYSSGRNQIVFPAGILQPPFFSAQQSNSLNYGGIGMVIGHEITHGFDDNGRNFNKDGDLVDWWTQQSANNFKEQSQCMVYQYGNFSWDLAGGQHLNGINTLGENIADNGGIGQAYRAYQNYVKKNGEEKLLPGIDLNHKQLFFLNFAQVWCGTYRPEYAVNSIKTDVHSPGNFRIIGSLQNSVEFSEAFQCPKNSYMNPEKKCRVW
Procedure: (§1) The biological activity relates to the inhibition of purified aminopeptidase N and of purified neutral endopeptidase.
(§2) 1) In vitro inhibition of enkephalinase activities.
a) Inhibitory potency against neutral endopeptidase
The inhibitory power is determined on purified rabbit kidney neutral endopeptidase following the protocol described in the literature (Blumberg et al. Life Sci. (1981) 28, 301). After a preincubation for 15 minutes at 25° C., an aliquot of proteins is incubated for 20 minutes at 25° C. in the presence of 20 nmol of (^3 H)-D-Ala^2 -Leu^5 -enkephalin and the test compound in solution in Tris-HCl buffer (pH 7.4) in the presence of dithiothreitol DTT (100 equivalents relative to the inhibitor). The reaction is stopped by adding 0.2 N HCl. The tritiated metabolite (^3 H)-Tyr-D-Ala-Gly is separated from the D-Ala^2 -Leu^5 -enkephalin by chromatography on a Porapak column, and the quantity formed measured using a liquid scintillation counter.
The activity of the different compounds is expressed as 50% inhibitory concentrations (IC50), and the results are summarized in Table II.

[2] = target: T2, purified porcine kidney aminopeptidase N (Sus scrofa, UniProt P15145); assay: In vitro inhibitory potency against aminopeptidase N; type: biochemical; settings: purified porcine kidney enzyme, (3H)-Leu5-enkephalin, DTT
T2 construct: purchased Boehringer, France; host or cells: porcine kidney
T2 sequence (P15145 1-963): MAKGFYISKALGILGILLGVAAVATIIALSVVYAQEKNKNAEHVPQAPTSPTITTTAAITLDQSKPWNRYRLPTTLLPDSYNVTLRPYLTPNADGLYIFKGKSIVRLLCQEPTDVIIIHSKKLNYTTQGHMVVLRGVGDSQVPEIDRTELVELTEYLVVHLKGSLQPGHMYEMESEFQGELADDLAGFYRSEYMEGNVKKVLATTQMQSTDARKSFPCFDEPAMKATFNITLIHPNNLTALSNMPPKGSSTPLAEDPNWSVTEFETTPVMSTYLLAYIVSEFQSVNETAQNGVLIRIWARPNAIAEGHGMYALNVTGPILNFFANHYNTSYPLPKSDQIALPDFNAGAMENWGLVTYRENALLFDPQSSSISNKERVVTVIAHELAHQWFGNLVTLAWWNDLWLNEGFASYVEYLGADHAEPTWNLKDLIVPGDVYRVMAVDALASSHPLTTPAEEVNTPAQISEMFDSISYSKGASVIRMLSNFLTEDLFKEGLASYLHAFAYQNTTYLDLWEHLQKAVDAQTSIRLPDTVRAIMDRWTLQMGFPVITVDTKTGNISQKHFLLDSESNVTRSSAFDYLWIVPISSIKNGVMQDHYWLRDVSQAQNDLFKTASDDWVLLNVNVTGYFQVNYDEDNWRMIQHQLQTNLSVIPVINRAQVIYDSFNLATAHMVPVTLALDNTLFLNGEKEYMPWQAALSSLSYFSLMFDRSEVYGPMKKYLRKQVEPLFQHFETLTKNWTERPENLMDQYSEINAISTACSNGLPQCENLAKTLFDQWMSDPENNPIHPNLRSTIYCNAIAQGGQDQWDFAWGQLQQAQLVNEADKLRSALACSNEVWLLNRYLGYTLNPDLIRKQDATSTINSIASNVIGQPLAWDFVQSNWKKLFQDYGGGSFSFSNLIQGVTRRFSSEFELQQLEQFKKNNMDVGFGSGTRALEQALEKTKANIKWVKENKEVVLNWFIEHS
Procedure: as §1, §2
b) Inhibitory potency against aminopeptidase N
The inhibitory power is measured on purified porcine kidney aminopeptidase (Boehringer, France). The assay is performed in a manner identical to the above, using (^3 H)-Leu^5 -enkephalin as a substrate. The metabolite formed, (^3 H)-Tyr, is separated by chromatography on a Porapak column, and the quantity formed measured using a liquid scintillation counter.

[3] = Hot plate test, i.v.; type: in vivo; settings: Mus musculus, iv, mice, hot plate 55° C., Table III 50% analgesia
Procedure: (§3) 1) Hot .plate test: This involves the licking and jumping reflex of the mouse on a plate heated to 55° C., according to the method of Jacob et al (Arch Int. Pharmacodyn. 122 287, 1959; 1961).
1.1. Administered i.v. (100 μl in tail vein) in mice, the compounds tested display a characteristic effect both on the latency time of jumping and on latency time of licking. These effects are antagonized by naloxone (0.5 mg/kg s.c.).
The results are expressed in Table III as a % analgesia. The percentage analgesia is expressed for each dose of compound tested by the following formula: [formula]

[4] = Locomotor activity (righting movements) after long-term sulpiride; type: in vivo, rats; settings: rat, after three weeks of sulpiride, control rat 100%
Procedure: c) Potentiation of the behavioral effects (locomotor hyperactivity) induced by the compounds according to the invention after long-term treatment with […]: 1 h after i.v. or p.o. administration in rats, the compounds according to the invention induce an increase in locomotor activity. […] This potentiation is not apparent until three weeks after the beginning of the treatment with neuroleptics.

[5] = Mice despair test; type: in vivo; settings: mouse, controls 165 ± 15, p < 0.01
Procedure: This test, described by Porsolt et al. (Arch. Int. Pharmacodyn. Ther, 299, 327 (1977), enables the antidepressant properties of the claimed compounds to be evaluated.
Mice are treated with increasing doses of the compounds thirty minutes before the test, and the immobility of the animals is measured relative to controls which receive only the vehicle. The immobility time is decreased by the compounds according to the invention, and this effect is antagonized by naloxame (0.5 mg/kg s.c.).

[6] = Tolerance after long-term administration, mice (% analgesia); type: in vivo; settings: mouse, in vivo
Procedure: (§4) e) Study of the tolerance and addiction effects induced by long-term administration of the compound of Example 8:
(§5) 1) The compound 8 is administered s.c. four times per 24 hours at a dose of 5 mg/kg for 6 days to mice and at 10 mg/kg to rats.
(§6) Morphine (hydrochloride) is administered under the same conditions (0.5 mg/kg in mice, 2 mg/kg in rats). The control animals receive only the vehicle.

[7] = Tolerance after long-term administration, rats (% analgesia); type: in vivo; settings: rat, in vivo
Procedure: as §4, §5, §6

[8] = Addiction effects: naloxone-precipitated abstinence syndrome after long-term treatment; type: in vivo; settings: rats, 6 days long-term treatment, naloxone 2 mg/kg s.c.; compared to morphine
Procedure: as §5
2) After long-term treatment for 6 days under the conditions described above, the rats undergo an injection of 2 mg/kg of naloxane s.c. The signs of abstinence syndrome are measured according to Cowan et al. (J. Pharmacol. Exp. Ther. (1988) 246, 950).

[9] = system: cerebral NEP; assay: In vivo inhibition of cerebral NEP; settings: mice, i.v., 2.7 μmol/kg (Example 7: same conditions)
Procedure: 2) "In vivo" inhibition of cerebral NEP
The enzymatic activity of cerebral NEP is compared in mice untreated or treated with a given dose of compound (approximately 2.5 mg/kg injected intravenously. The animals are sacrificed at variable times after injection of the inhibitor, and the NEP activity is determined in the brain by measuring the degradation of (^3 H)-D-Ala^2 -Leu^5 -enkephalin.
For the final compound of Example 1, injected at a dose of 2.7 μmol/kg (47.6 μg in 100 μl), the following results are obtained: […]

[10] = Hot plate test, i.p.; type: in vivo; settings: mice
Procedure: as §3
1.2 Administered i.p. in mice, the test compounds display a characteristic effect on the times of restraint of jumping and of licking. These effects are antagonized by naloxone (0.5 mg/kg).

[11] = Test on abdominal cramps induced by phenylbenzoquinone, i.v.; type: in vivo
Procedure: 2) Test on abdominal cramps
(Hendershot and Forsaith. J. Pharmacol. (1975), 125, 237): This test measures the number of cramps induced by i.p. injection of 100 μl of a 0.02% solution of phenylbenzoquinone. The number of cramps is counted during 10 minutes, 10 minutes after the injection. Administered i.v., the compounds decrease the number of cramps.

[12] = Tail flick test (withdrawal of the tail), i.v.; type: in vivo; settings: rats, 10 mg/kg
Procedure: 3) Test of withdrawal of the tail in rats: (tail flick test): administered i.v. in rats, the compounds according to the invention produce a significant extension of the time of withdrawal of the tail. These effects are antagonized by naloxone (0.5 mg/kg s.c.).
The results are expressed as a % analgesia for the same dose (10 mg/kg) of all the compounds tested.

[13] = Cross-tolerance with morphine, i.v. injection into morphine-tolerant animal; settings: mouse or rat

IC50 [1]: 3 nM
IC50 [2]: 2 nM
SMILES: C[S+]([O-])CCC(N)CSSCC(CC[S+](C)[O-])C(=O)NC(CC(=O)OCc1ccccc1)Cc1ccccc1 (stereo not drawn) [Example 30]
ED50 [3]: 3 mg/kg
Locomotor activity ([4]; i.v. (so in the source), 20 mg/kg): 370%
Locomotor activity ([4]; i.v., 2 mg/kg): 350%
Immobility time ([5]; 2 mg/kg i.p.): 96 ± 8 s
Immobility time ([5]; 20 mg/kg p.o.): 101 ± 10 s

SMILES: C[S+]([O-])CCC(N)CSSCC(Cc1ccccc1)C(=O)NCC(=O)OCc1ccccc1 (stereo not drawn) [Example 8]
IC50 [1]: 2 nM
IC50 [2]: 2 nM
ED50 [3]: 2.5 mg/kg
% analgesia relative to the controls [6]: 100 ± 10% and 100 ± 8% and 70 ± 15%
% analgesia relative to the controls [7]: 40 ± 5% and 30 ± 7%
addiction effects [8]: very weak addiction effects

SMILES: CSCCC(N)CSSCC(Cc1ccccc1)C(=O)NC(Cc1ccccc1)C(=O)OCc1ccccc1 (stereo not drawn) [Example 7]
IC50 [1]: 2.5 nM
% inhibition cerebral NEP ([9]; 60'): 96 ± 5%
% inhibition cerebral NEP ([9]; 120'): 96 ± 4%
% inhibition cerebral NEP ([9]; 180'): 92 ± 4%
ED50 [3]: 5 mg/kg
dose in i.p. hot plate table [10]: 8 mg/kg
% analgesia (abdominal cramps) ([11]; 2.5 mg/kg): 32% ± 4
% analgesia (abdominal cramps) ([11]; 5 mg/kg): 68% ± 9
% analgesia (abdominal cramps) ([11]; 10 mg/kg): 95% ± 4
% analgesia (tail flick) [12]: 42%
Locomotor activity ([4]; i.v., 3 mg/kg): 400%
analgesic response in morphine-tolerant animal [13]: analgesic response identical to that obtained in a control animal
cross-tolerance with morphine [13]: absence of cross-tolerance

IC50 [1]: 2 nM
IC50 [2]: 2 nM
SMILES: CSCCC(N)CSSCC(Cc1ccccc1)C(=O)NCC(=O)OCc1ccccc1 (stereo not drawn) [Example 5]
ED50 [3]: 2.5 mg/kg
dose in i.p. hot plate table [10]: 7 mg/kg
% analgesia (tail flick) [12]: 25%
Locomotor activity ([4]; i.v., 5 mg/kg): 400%
Immobility time ([5]; 5 mg/kg i.p.): 108 ± 12 s
